Measurements from ChEMBL document CHEMBL2380265, “Inhibitors of the p53/hdm2 protein-protein interaction-path to the clinic” (Bioorg Med Chem Lett, 2013).
Where a SMILES comes first, the peptide text is derived from it. [ ]: non-standard residue; d: D form. Trp(6-Cl) = N[C@@H](Cc1c[nH]c2cc(Cl)ccc12)C(=O)O; Pmp = N[C@@H](Cc1ccc(CP(=O)(O)O)cc1)C(=O)O; Ac3c = NC1(C(=O)O)CC1; Aib = CC(C)(N)C(=O)O

Tests used:
[1] = biological target: T1, E3 ubiquitin-protein ligase Mdm2 (Homo sapiens, UniProt Q00987); assay: Antagonist activity at human GST-tagged MDM2 assessed as inhibition of binding to full length p53
[2] = biological target: T1, E3 ubiquitin-protein ligase Mdm2; assay: Antagonist activity at human MDM2
[3] = biological target: Tumour suppressor p53/oncoprotein Mdm2 (Homo sapiens, UniProt P04637+Q00987); assay: Binding affinity to human MDM2/p53; assay type: protein assay
Sequence of Tumour suppressor p53/oncoprotein Mdm2 (P04637 whole entry): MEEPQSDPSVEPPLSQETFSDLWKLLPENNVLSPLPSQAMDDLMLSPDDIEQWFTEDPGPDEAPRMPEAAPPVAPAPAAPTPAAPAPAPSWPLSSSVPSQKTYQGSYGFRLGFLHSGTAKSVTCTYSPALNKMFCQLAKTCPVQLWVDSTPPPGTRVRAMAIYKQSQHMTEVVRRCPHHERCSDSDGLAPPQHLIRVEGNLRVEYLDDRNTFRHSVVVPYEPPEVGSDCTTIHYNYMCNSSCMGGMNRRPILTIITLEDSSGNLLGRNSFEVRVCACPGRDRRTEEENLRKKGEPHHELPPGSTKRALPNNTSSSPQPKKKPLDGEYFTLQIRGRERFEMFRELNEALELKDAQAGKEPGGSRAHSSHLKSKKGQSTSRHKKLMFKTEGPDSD
Sequence of Tumour suppressor p53/oncoprotein Mdm2 (Q00987 whole entry): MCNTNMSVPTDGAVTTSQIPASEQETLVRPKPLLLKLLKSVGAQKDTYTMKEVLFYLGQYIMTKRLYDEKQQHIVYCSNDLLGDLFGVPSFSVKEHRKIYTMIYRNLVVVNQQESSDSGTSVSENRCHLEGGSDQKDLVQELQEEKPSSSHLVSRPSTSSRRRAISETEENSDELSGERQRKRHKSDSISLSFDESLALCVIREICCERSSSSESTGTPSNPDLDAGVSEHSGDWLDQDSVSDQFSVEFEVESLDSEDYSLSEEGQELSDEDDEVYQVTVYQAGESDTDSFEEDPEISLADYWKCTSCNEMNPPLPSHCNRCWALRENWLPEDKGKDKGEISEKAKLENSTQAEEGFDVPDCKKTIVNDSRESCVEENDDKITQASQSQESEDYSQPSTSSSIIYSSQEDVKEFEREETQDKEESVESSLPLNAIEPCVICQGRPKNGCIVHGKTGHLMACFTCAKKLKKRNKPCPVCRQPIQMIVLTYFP

T1 sequence (Q00987 whole entry): as above

Structure (SMILES)	IC50 [2] [nM]	also measured
CSCC[C@H](NC(=O)[C@H](Cc1ccccc1)NC(C)=O)C(=O)NC(C)(C)C(=O)N[C@@H](Cc1ccc(CP(=O)(O)O)cc1)C(=O)N[C@@H](Cc1c[nH]c2cc(Cl)ccc12)C(=O)N[C@@H](CCC(=O)O)C(=O)NC1(C(=O)N[C@@H](CC(C)C)C(N)=O)CC1 (Ac-FM[Aib][Pmp][Trp(6-Cl)]E[Ac3c]L-NH2)		IC50 [1]: 5 nM
CSCC[C@H](NC(=O)[C@H](Cc1ccccc1)NC(=O)[C@H](CCCN=C(N)N)NC(=O)[C@@H]1CCCN1C(=O)[C@H](CCSC)NC(C)=O)C(=O)N[C@@H](CC(=O)O)C(=O)N[C@@H](Cc1ccc(O)cc1)C(=O)N[C@@H](Cc1c[nH]c2ccccc12)C(=O)N[C@@H](CCC(=O)O)C(=O)NCC(=O)N[C@@H](CC(C)C)C(=O)N[C@@H](CC(N)=O)C(N)=O (Ac-MPRFMDYWEGLN-NH2)	313	
CCOc1cc(C(C)(C)C)ccc1C1=N[C@@H](c2ccc(Cl)cc2)[C@@H](c2ccc(Cl)cc2)N1C(=O)N1CCN(CCCS(C)(=O)=O)CC1		Kd [3]: 10.7 nM
CSCC[C@H](NC(=O)[C@@H](N)Cc1ccccc1)C(=O)N[C@@H](CC(=O)O)C(=O)N[C@@H](Cc1ccc(O)cc1)C(=O)N[C@@H](Cc1c[nH]c2ccccc12)C(=O)N[C@@H](CCC(=O)O)C(=O)NCC(=O)N[C@@H](CC(C)C)C(N)=O (H-FMDYWEGL-NH2)	8900	
